Source: patent publication US20230255974A1, “USE OF THYROMIMETICS FOR THE TREATMENT OF CANCER” (THE UNIVERSITY OF VERMONT, priority 2020, published 2023)

How the values were obtained:
[1] = test system: SW1736 cells (SW-EV, SW-TRβ); assay: Migration (wound healing) assay, T3; assay type: cell-based, human; settings: SW-TRβ treated with T3 vs SW-EV
Procedure: Migration Assay. Cell migration was determined by wound healing assay. Cells were plated and allowed to grow to 100% confluency. Two hours prior to scratching, cells were treated with […] Mitomycin C. A scratch was performed with a P1000 pipette tip and debris was washed away with PBS. Migration media was supplemented with 10^−8 M T3. Images were obtained at 0, 24, 48, and 72 hours. Wound closure was measured using ImageJ macro “Wound Healing Tool” (http://dev.mri.cnrs.fr/projects/imagej-macros/wiki/Wound_Healing_Tool). Values were normalized so that the initial scratch was 0% closure.

[2] = test system: NthyOri thyroid cells; settings: normal-like NthyOri thyroid cells
[3] = test system: interferon/JAK1/STAT1 pathway; assay: Interferon/JAK1/STAT1 pathway expression (immunoblot, qPCR); assay type: cell-based, human; settings: SW-TRβ
Procedure: Immunoblot Analysis. Proteins were isolated from whole cells in lysis buffer (20 mM Tris-HCl [pH 8], 137 mM NaCl, 10% glycerol, 1% Triton X-100, and 2 mM EDTA) containing Protease Inhibitor Cocktail 78410 (Thermo Scientific). Proteins were resolved by polyacrylamide gel electrophoresis on 10% sodium dodecyl sulfate gels EC60752 (Life Technologies) and immobilized onto nitrocellulose membranes (GE Healthcare) by electroblot (Bio-Rad Laboratories). Specific proteins were detected by immunoblotting with the indicated antibodies (Table 4); immunoreactive proteins were detected by enhanced chemiluminescence (Thermo Scientific) on a ChemiDoc XRS+ (Bio-Rad Laboratories). RNA Extraction and Quantitative Real-Time PCR (qRT-PCR). Total RNA was extracted using RNeasy Plus Kit (Qiagen) according to manufacturer's protocol. cDNA was then generated using the 5×RT Mastermix (ABM). Gene expression to validate RNASeq analysis was quantified by qRT-PCR using 2×SuperGreen Mastermix (ABM) on a QuantStudio 3 real-time PCR system (Applied Biosystems). Fold change in gene expression compared to endogenous controls was calculated using the ddCT method.

[4] = test system: SW1736 cells (SW-EV, SW-TRβ); assay: Soft agar colony formation assay; assay type: cell-based, human; settings: 10^−8 M T3, 14 days
Procedure: Soft Agar Colony Formation Assay. Soft agar colony forming assays were used to assess anchorage-independent growth. A layer 0.50% agar in thyroid media (as described) was solidified in 6-well cell culture plates. SW-EV or SW-TRβ cells were plated in a second layer of 0.25% agar in thyroid media. 200 uL of thyroid media was maintained at the top of each well to prevent the agar from drying. […] Colonies were allowed to grow for 14 days. Live SW-EV and SW-TRβ colonies were detected via GFP expression using a ChemiDoc XRS+ (Bio-Rad Laboratories). Colonies were then counted with ImageJ using the Colony Counter plugin.

[5] = test system: SW1736 cells (SW-EV, SW-TRβ); assay: Tumorsphere assay, T3; assay type: cell-based, human; settings: 10^−8 M T3, seven days
[6] = test system: SW1736 cells (SW-EV, SW-TRβ); assay: Apoptosis assay (PARP1 and caspase 3 cleavage, immunoblot); assay type: cell-based, human
Description: Immunoblot Analysis. […] Proteins were resolved by polyacrylamide gel electrophoresis on 10% sodium dodecyl sulfate gels EC60752 (Life Technologies) and immobilized onto nitrocellulose membranes (GE Healthcare) by electroblot (Bio-Rad Laboratories). Specific proteins were detected by immunoblotting with the indicated antibodies (Table 4); immunoreactive proteins were detected by enhanced chemiluminescence (Thermo Scientific) on a ChemiDoc XRS+ (Bio-Rad Laboratories).
Apoptosis Assay. Cells were plated at a density of 50,000 cells/well and treated with vehicle (1 N NaOH) or 10^−8 M T3. After 5 days the cells were lysed for analysis by immunoblot. Poly (ADP-ribose) polymerase 1 (PARP1) and Caspase 3 cleavage were assessed to measure apoptotic signaling.
Immunoblot Analysis. […] Proteins were resolved by polyacrylamide gel electrophoresis on 10% sodium dodecyl sulfate gels EC60752 (Thermo Fisher Scientific) and immobilized onto nitrocellulose membranes (GE Healthcare, Chicago, Ill., USA) by electroblot (Bio-Rad Laboratories, Hercules, Calif., USA). Specific proteins were detected by immunoblotting with the indicated antibodies (Table 4); immunoreactive proteins were detected by enhanced chemiluminescence (Thermo Scientific) on a ChemiDoc XRS+ (Bio-Rad Laboratories).

[7] = test system: MDA-MB-468 cells (EV, TRβ); settings: MDA-MB-468 in the presence of TRβ, 10 nM, 3 days
Procedure: Triple negative breast cancer were examined next. […] TNBC cancers and other advanced solid tumors have lower endogenous levels of expression of TRβ. […] Cell migration was measured by scratch assay (FIG. 28). […] Data are mean+/−SD; *indicates p<0.05 determined by t-test.

[8] = test system: SW1736 cells (SW-EV, SW-TRβ); assay: RNA-seq gene expression in SW-EV and SW-TRβ; assay type: cell-based, human
Procedure: RNA-seq Library Construction and Quality Control. 80% confluent monolayers of SW-EV and SW-TRβ cells were hormone starved for 24 hours in phenol red free RPMI with charcoal-stripped fetal bovine serum. 10^−8M T3 was added and incubated for 24 hours prior to sample collection. Total RNA was extracted and purified using RNeasy Plus Kit (Qiagen) according to manufacturer's protocol. Purity of the total RNA samples was assessed via BioAnalyzer (Agilent) and samples with a RIN score >7 were used for library construction. rRNA was depleted using 1 μg of total RNA with the RiboErase kit (KAPA Biosystems). Strand-specific Illumina cDNA libraries were prepared using the KAPA Stranded RNA-Seq library preparation kit with 10 cycles of PCR (KAPA Biosystems). Library quality was assessed by BioAnalyzer (Agilent) to ensure an average library size of 300 bp and the absence of excess adaptors in each sample. RNA-Seq libraries were pooled and sequenced on the Illumina HiSeq 1500 with 50 bp single-end reads. Quality scores across sequenced reads were assessed using FASTQC. […] For alignment and transcript assembly, the sequencing reads were mapped to hg38 using STAR. Sorted reads were counted using HTSeq and differential expression analysis was performed using DESeq2.

## N[C@@H](Cc1cc(I)c(Oc2ccc(O)c(I)c2)c(I)c1)C(=O)O [T3, (2S)-2-amino-3-[4-(4-hydroxy-3-iodophenoxy)-3,5-diiodophenyl]propanoic acid]
[1]
  scratch closure (AUC): significantly reduced scratch closure
[2]
  cell phenotypic or signaling changes: No cell phenotypic changes or signaling changes were observed
[3]; T3
  expression of IRF1 target genes APOL6 and TNFSF10 (qPCR): Induction of IRF1 target genes APOL6 and TNFSF10
  expression of STAT1 target genes IRF1 and TAP1 (qPCR): increased the expression of STAT1 target genes IRF1 and TAP1
[3]; T3 treatment
  expression of JAK1 and STAT1: significantly increased
[4]; SW-EV
  anchorage-independent colony growth: reduced anchorage-independent colony growth
[4]; SW-TRβ
  anchorage-independent colony growth: nearly ablated colony growth
[5]; SW-EV
  number of tumorspheres formed: no effect on the number of tumorspheres
[5]; SW-TRβ
  tumorsphere growth: blocked almost all tumorsphere growth
[6]; SW-EV and SW-TRβ, T3, 5 days
  caspase 3 and PARP1 cleavage: induced cleavage of these apoptotic effectors only in SW-TRβ
[6]; SW-TRβ, five days
  apoptosis (cleaved PARP and caspase): induces apoptosis
[7]
  cell migration and growth: reduced cell migration and growth
[8]; SW1736-TRβ, T3 treated
  expression of epithelial marker CDH1: increased expression
  expression of mesenchymal marker VIM: decreased
[8]; SW-EV and SW-TRβ, T3
  expression of cluster 1 genes in the ILK signaling IPA pathway: repressed
[8]; SW-TRβ, T3 treated
  thyroid differentiation markers: significantly induced
  thyroid differentiation score (TDS): significantly higher TDS
[8]; TRβ overexpression and T3, RNA-seq
  expression of thyroid-specific cancer stem cell genes ALDH, POU5F1, CD44, FUT4, PROM1: significantly reduced expression of the thyroid-specific cancer stem cell genes
